Laboratory results published in patent US8476255B2, “Histone deacetylase inhibitors” (Orchid Chemicals & Pharmaceuticals Limited, priority 2007, dated 2013).

Assays:
NCIH460 (lung) cells = test: Anti-cancer screen (MTT), NCIH460; format: cell-based; conditions: Homo sapiens, NCI-H460, NCIH460, 48 hours, MTT; for GI50: read-out: Cell growth inhibition NCIH460 (Lung) GI50; for LC50: read-out: Cell growth inhibition NCIH460 (Lung) LC50; for IC (TGI): read-out: Cell growth inhibition NCIH460 (Lung) TGI
Method in brief: (§1)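 Cells in DMEM with 10% FBS were seeded for 24 h, then exposed for 48 h to compounds at 0.01, 0.1, 1, 10 and 100 μM final, in triplicate. Viability was read by MTT (3 h, A570 after DMSO solubilisation), referenced to a pre-dosing T0 plate, with SAHA as standard.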

HCT 116 (colon) cells = test: Anti-cancer screen (MTT), HCT 116; format: cell-based; conditions: Homo sapiens, HCT-116, HCT116, 48 hours, MTT; for GI50: read-out: Cell growth inhibition HCT116 (Colon) GI50; for CC50: read-out: Cell growth inhibition HCT116 (Colon) LC50; for IC (TGI): read-out: Cell growth inhibition HCT116 (Colon) TGI
Method in brief: as §1

U251 (glioma) cells = test: Anti-cancer screen (MTT), U251; format: cell-based; conditions: Homo sapiens, U-251, U251, 48 hours, MTT; for GI50: read-out: Cell growth inhibition U251 (Glioma) GI50; for LC50 (concentration giving 50% net cell kill relative to the time-zero cell count): read-out: Cell growth inhibition U251 (Glioma) LC50; for IC (TGI): read-out: Cell growth inhibition U251 (Glioma) TGI
Procedure: Experimental drugs were screened for anti-cancer activity in three cell lines using five concentrations for each compound. The cell lines —HCT 116 (colon), NCIH460 (lung) and U251 (glioma) were maintained in DMEM containing 10% fetal bovine serum. 96-well microtiter plates are inoculated with cells in 100 μL of cell suspension (5×10^4 cells/mL) for 24 hours at 37° C., 5% CO2, 95% air and 100% relative humidity. A separate plate with these cell lines is also inoculated to determine cell viability before the addition of the compounds (T0).
Following 24-hours incubation, test compounds were added to the 96 well plates. Each plate contains one of the above cell lines and the following samples in triplicate: five different dilutions (0.01, 0.1, 1, 10 and 100 μM) of four test compounds, appropriate dilutions of a cytotoxic standard and growth medium (untreated) wells. Test compounds were dissolved in DMSO to prepare 20 mM stock solutions on the day of drug addition and serial dilutions were carried out in complete growth medium at 2× strength such that 100 μL added to wells gave final concentrations (0.01, 0.1, 1, 10 and 100 μM) in the well. SAHA was used as standard drug in these experiments.
For T0 measurement, 24 hours after seeding the cells, 20 μL of 3-(4,5-dimethyl-2-thiazolyl)-2,5-diphenyl-2H-tetrazolium (MTT) solution per well was added to the ‘T0’ plate and incubated for 3 hours at 37° C. in a CO2 incubator. The plate containing cells and test compounds was treated similarly after 48 hours of incubation. After 3 hours of MTT addition, well contents were aspirated carefully followed by addition of 150 μL DMSO per well. Plates were agitated to ensure dissolution of the formazan crystals in DMSO and absorbance was read at 570 nm (A570).
(Mosmann T. Rapid colorimetric assay for cellular growth and survival: application to proliferation and cytotoxicity assays. J Immunol Methods 1983; 65(1-2): 55-63; Anne Monks et al. Feasibility of high-flux anticancer drug screen using a diverse panel of cultured human tumor cell lines”. JNCI, Vol. 83, No. 11, 1991).

[1] = tested on: NCIH460, HCT116 and U251 cells; test: Anti-cancer screen, mean GI50 over cell lines; format: cell-based; conditions: mean over cell lines; read-out: Cell growth inhibition Mean GI50
Method in brief: as §1

[2] = tested on: HDAC (Mouse Liver Extract); test: HDAC inhibition assay using Boc-Lys(Ac)-AMC substrate; format: biochemical; conditions: mouse liver enzyme
Procedure: Inhibition of HDAC has been implicated to modulate transcription and to induce apoptosis or differentiation in cancer cells. The fluorometric assay provides a fast and fluorescence based method that eliminates radioactivity, extractions or chromatography, as used in traditional assays. The assay is based on two steps. First, the HDAC fluorometric substrate, which comprises an acetylated lysine side chain, is incubated with a sample containing HDAC activity (Mouse Liver Extract). Deacetylation of the substrate sensitizes the substrate, in the second step; treatment with the Trypsin stop solution produces a fluorophore that can be easily analyzed using fluorescence plate reader. Assay was done in 96-well black microplate and total volume of the assay was […]. […] The plate was pre-incubated at 37° C. for 5 minutes. […] The plate was incubated at 37° C. for 30 min. The reaction was stopped by adding 100 μL, of Trypsin stop solution and incubating at 37° C. for 15-30 min. Measuring the fluorescence at excitation wavelength of 360 nm and emission wavelength of 460 nm monitored the release of AMC. Buffer alone and substrate alone served as blank. […] (Dennis Wegener et al, Anal. Biochem, 321, 2003, 202-208).

Structure (SMILES) | GI50 (NCIH460 (lung) cells) [µM] | LC50 (NCIH460 (lung) cells) [µM] | IC (TGI) (NCIH460 (lung) cells) [µM] | GI50 (HCT 116 (colon) cells) [µM] | CC50 (HCT 116 (colon) cells) [µM] | IC (TGI) (HCT 116 (colon) cells) [µM] | GI50 (U251 (glioma) cells) [µM] | LC50 (concentration giving 50% net cell kill relative to the time-zero cell count) (U251 (glioma) cells) [µM] | IC (TGI) (U251 (glioma) cells) [µM] | GI50 [1] [µM] | HDAC inhibition % (1 μM) [2] [%] | HDAC inhibition % (10 μM) [2] [%]
COc1cc(/C=C(/C(=O)NCc2ccc(C(=O)Nc3ccccc3N)cc2)c2ccc(F)cc2)cc(OC)c1OC [Compound 8, N-(2-Aminophenyl)-4-((3-(3,4,5-trimethoxyphenyl)-2-(4-fluorophenyl)acrylamido)methyl)benzamide] | 89 | > 100 | > 100 | 24.5 | > 100 | 82.5 | 67 | > 100 | 84.5 | 60.2 | 21.4 | 26.4
Nc1ccccc1NC(=O)c1ccc(CNC(=O)/C(=C/c2ccc(F)cc2Cl)c2ccccc2)cc1 [Compound 9, N-(2-Aminophenyl)-4-((3-(2-chloro-4-fluorophenyl)-2-(phenyl)acrylamido)methyl)benzamide] | 90 | > 100 | > 100 | 58 | > 100 | 94 | 60 | > 100 | 79 | 69.3 | 12.1 | 32.1
Nc1ccccc1NC(=O)c1ccc(CNC(=O)/C(=C/c2ccc(F)cc2)c2ccccc2)cc1 [Compound 10, N-(2-Aminophenyl)-4-((3-(4-fluorophenyl)-2-(phenyl)acrylamido)methyl)benzamide] | 19.5 | 85 | 49 | 3.9 | 56 | 9 | 27 | 92 | 57 | 16.8 | 14.5 | 32.1
COc1ccc(/C=C(/C(=O)NCc2ccc(C(=O)Nc3ccccc3N)cc2)c2ccc(F)cc2)cc1 [Compound 11, N-(2-Aminophenyl)-4-((3-(4-methoxyphenyl)-2-(4-fluorophenyl)acrylamido)methyl)benzamide] | 8 | 83 | 41.2 | 5 | 68.5 | 12.5 | 26.1 | 86 | 53 | 13 | 9.7 | 24.6
Nc1ccccc1NC(=O)c1ccc(CNC(=O)/C(=C/c2ccccc2)c2ccccc2)cc1 [Compound 12, N-(2-Aminophenyl)-4-((3-phenyl-2-phenylacrylamido)methyl)benzamide] | 32 | 87 | 60 | 5.2 | 76.2 | 37 | 18 | 82 | 48.5 | 18.4 | 13.6 | 29.8
Nc1ccccc1NC(=O)c1ccc(CNC(=O)/C(=C/c2c(F)cc(F)cc2F)c2ccc(F)cc2)cc1 [Compound 13, N-(2-Aminophenyl)-4-((3-(2,4,6-trifluorophenyl)-2-(4-fluorophenyl)acrylamido)methyl)benzamide] | 34 | 93 | 66 | 8.9 | 90 | 50 | 3.4 | 48 | 8 | 15.4 | 9.4 | 18.2
CSc1ccc(/C=C(/C(=O)NCc2ccc(C(=O)Nc3ccccc3N)cc2)c2cccs2)cc1 [Compound 18, N-(2-Aminophenyl)-4-((3-(4-methylthiophenyl)-2-(thiophen-2-yl)acrylamido)methyl)benzamide] | 4.1 | > 100 | 20 | 5 | > 100 | 20 | 2.2 | 7 | 4 | 3.8 | 28.7 | 36.7
COc1cc(/C=C(/C(=O)NCc2ccc(C(=O)Nc3ccccc3N)cc2)c2ccc(F)cc2)ccc1F [Compound 20, N-(2-Aminophenyl)-4-((3-(4-fluoro-3-methoxyphenyl)-2-(4-fluorophenyl)acrylamido)methyl)benzamide] | 7.5 |  | 18 | 0.3 | 80 | 20 | 1.7 |  | 3.5 | 3.2 | 45.1 | 46.2
CSc1ccc(/C=C(/C(=O)NCc2ccc(C(=O)Nc3ccccc3N)cc2)c2ccc(C(F)(F)F)cc2)cc1 [Compound 21, N-(2-Aminophenyl)-4-((3-(4-methylthiophenyl)-2-(4-trifluoromethylphenyl)acrylamido)methyl)benzamide] | 32 | 78 | 46 | 35 | 82 | 56 | 52 | 96 | 65 | 39.7 | 7.0 | 24.8
CSc1ccc(/C=C(/C(=O)NCc2ccc(C(=O)Nc3ccccc3N)cc2)c2ccccc2F)cc1 [Compound 24, N-(2-Aminophenyl)-4-((3-(4-methylthiophenyl)-2-(2-fluorophenyl)acrylamido)methyl)benzamide] | 5 |  | 32 | 3.8 | > 100 | 12 | 8.5 |  | 30 | 5.8 | 41.3 | 51.4
CSc1ccc(/C=C(/C(=O)NCc2ccc(C(=O)Nc3ccccc3N)cc2)c2ccc(C)cc2)cc1 [Compound 25, N-(2-Aminophenyl)-4-((3-(4-methylthiophenyl)-2-(4-methylphenyl)acrylamido)methyl)benzamide] | 19 | 100 | 58 | 7.5 | 90 | 48 | 6.5 | 89 | 37 | 11 | 63.8 | 68.1
